Legend:
[1] = molecular target: T1, CdAlr (C. difficile alanine racemase; CdAlrWT) (Clostridioides difficile, UniProt Q180W0); assay: X-ray co-crystal structure, […] A; format: binding; settings: covalent; adduct with PLP (DCS) in the active site; 100 mM cycloserine
T1 construct: gene alr2; monomer 43306 Da, homodimer; WT preparation partly cleaved at position 271 (fragments 1-271 and 272-382)

[2] = molecular target: T1, CdAlr (C. difficile alanine racemase; CdAlrWT); assay: X-ray crystal structure, […] A; format: binding; settings: covalent; internal aldimine with Lys39

T1 sequence (Q180W0 entry or part of it): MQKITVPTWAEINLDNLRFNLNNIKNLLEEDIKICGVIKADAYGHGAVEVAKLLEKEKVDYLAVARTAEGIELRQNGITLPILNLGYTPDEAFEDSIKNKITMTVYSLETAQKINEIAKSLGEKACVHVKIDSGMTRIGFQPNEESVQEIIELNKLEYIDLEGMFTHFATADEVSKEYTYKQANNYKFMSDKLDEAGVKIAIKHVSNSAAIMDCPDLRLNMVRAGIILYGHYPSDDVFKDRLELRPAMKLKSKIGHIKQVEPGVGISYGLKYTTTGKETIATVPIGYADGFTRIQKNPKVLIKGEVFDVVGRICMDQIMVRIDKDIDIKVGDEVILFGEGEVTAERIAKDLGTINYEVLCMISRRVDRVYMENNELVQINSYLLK

Row | SMILES | X-ray co-crystal structure, 2.26 A [1] | X-ray crystal structure, 2.10 A [2]
1 | N[C@@H]1CONC1=O [cycloserine] | In the CdAlrcycloserine structure, cycloserine forms a covalent adduct with PLP | 
2 | Cc1ncc(COP(=O)(O)O)c(C=O)c1O [PLP] |  | Two structures (CdAlrK271T and CdAlrPLP) contain the cofactor PLP
